Source: patent publication US7402663B2, “Modified peptide” (University of Ulster, priority 2001, dated 2008)
Where two headings read alike, the source gives them in different places. Values belong to the molecule of their own block, whether it stands above or below them. Numbered stars: 1 amine (or outer) side, 2 acyl side, 3 side chain; on linkers, the order of the positions; unused ones are H or OH. Square brackets hold non-standard residues; d marks the D form. Ends that are not written are not given here. Peptide text beside a SMILES is read from it. X1 = O=C(O)C[C@@H](C(=O)[*:2])N(C[C@H](O)[C@@H](O)[C@H](O)[C@H](O)CO)[*:1]; sY = N[C@@H](Cc1ccc(OS(=O)(=O)O)cc1)C(=O)O

Experiments:
[1] = Effects of mouse serum on in vitro degradation of peptides (HPLC); assay type: in vitro ADME
Protocol: Effects of mouse serum on degradation of CCK-8, Asp^1glucitol CCK-8 and pGlu-Gln CCK-8. Serum (20 μl) from fasted Swiss TO mice was incubated at 37° C. with 10 μg of either native CCK-8, Asp^1-glucitol CCK-8 or pGlu-Gln CCK-8 for periods up to 2 h in a reaction mixture (final vol. 500 μl ) containing 50 mmol/l triethanolamine/HCl buffer pH 7.8. The reaction was stopped by addition of 5 μl of TFA and the final volume adjusted to 1.0 ml using 0.1% (v/v) TFA/water. Samples were centrifuged (13,000 g, 5 min) and the supernatant applied to a C-18 Sep-Pak cartridge (Waters/Millipore) which was previously primed and washed with 0.1% (v/v) TFA/water. After washing with 20 ml 0.12% TFA/water, bound material was released by elution with 2 ml of 80% (v/v) acetonitrile/water and concentrated using a Speed-Vac concentrator (AES 1000, Savant). The volume was adjusted to 1.0 ml with 0.12% (v/v) TFA/water and applied to a (250×4.6 mm) Vydac C-18 column pre-equilibrated with 0.12% (v/v) TFA/water at a flow rate of 1.0 ml/min. The concentration of acetonitrile in the eluting solvent was raised from 0 to 31.5% over 15 min, from 31.5 to 38.5% over 30 min, and from 38.5 to 70% over 5 min, using linear gradients monitoring eluting peaks at 206 nm.

Swiss TO mice = test: Voluntary food intake in fasted Swiss TO mice after i.p. injection; assay type: in vivo, mouse
Protocol: Effects of CCK-8, Asp^1glucitol CCK-8, pGlu-Gln CCK-8 and other peptides on food intake in mice. Studies to evaluate the relative potencies of control CCK-8, Asp^1-glucitol CCK-8, pGlu-Gln CCK-8 and other peptides involved in regulation of feeding were performed using male Swiss TO mice (n=16) aged 7-12 weeks from a colony originating from the Behavioral and Biomedical Research Unit, University of Ulster. The animals were housed individually in an air-conditioned room at 22±2° C. with 12 h light/12 h dark cycle. Drinking water was supplied ad libitum and standard mouse maintenance diet (Trouw Nutrition, Cheshire, UK) was provided for various times as indicated below. The mice were habituated to a daily feeding period of 3 h/day by progressively reducing the feeding period over a 3 week period. On days 1-6, food was supplied from 10.00 to 20.00 h, days 7-14 from 10.00 to 16.00 h and days 15-21 food was restricted to 10.00 to 13.00 h. Body weight, food and water intake were monitored daily.
(§1) Mice which had been previously habituated to feeding for 3 h/day were administered a single i.p. injection of saline (0.9% w/v NaCl, 10 ml/kg) in the fasted state (10.00 h) and food was immediately returned following injection. Two days after the saline injection, mice were randomly allocated into groups of 7-8 animals which were administered a single i.p. injection (from 1 to 100 nmol/kg) of either CCK-8, structurally modified CCK-8 analogues and/or other peptide hormones (including, bombesin, leptin and islet amyloid polypeptide (IAPP)). Food intake was carefully monitored at 30 min intervals up to 180 min post injection. In one series of experiments, the ability of CCK-8 and Asp^1-glucitol CCK-8 to inhibit feeding activity was studied in overnight fasted adult obese hyperglycaemic (ob/ob) mice. All animal studies were done in accordance with the Animals (Scientific Procedures) Act 1986.
Statistical analysis. Groups of data are presented as means±SE. Statistical evaluation was performed using analysis of variance, least significant difference multiple comparisons test and Student's unpaired t-test as appropriate. Differences were considered to be significant if P<0.05.

[2] = tested on: obese diabetic (ob/ob) mice; test: Voluntary food intake in fasted obese diabetic (ob/ob) mice after i.p. injection; assay type: in vivo, mouse; details: 100 nmol/kg i.p.
Protocol: as §1
FIG. 4 Effect of CCK-8, Asp^1-glucitol CCK-8 or saline on voluntary food intake in obese diabetic (ob/ob) mice. Saline or test agents were administered by i.p. injection (100 nmol/kg) to fasted obese diabetic (ob/ob) mice at time 0 immediately before introduction of food. Cumulative food intake was monitored at 30, 60, 90, 120, 150, 180, 210, 240, 270 and 300 min post injection. Values are means±SE of 8 observations. […]

[3] = generally accepted; cited from earlier work

% Total CCK-like material [1]: 100%
remaining at 1 h, 20 µg/ml ([1]; Swiss TO, mouse, serum, pH 7.8): 100%
remaining at 2 h, 20 µg/ml ([1]; Swiss TO, mouse, serum, pH 7.8): 100%
Molecule: CSCC[C@H](NC(=O)[C@H](Cc1ccc(OS(=O)(=O)O)cc1)NC(=O)[C@H](CC(=O)O)NC[C@H](O)[C@@H](O)[C@H](O)[C@H](O)CO)C(=O)NCC(=O)N[C@@H](Cc1c[nH]c2ccccc12)C(=O)N[C@@H](CCSC)C(=O)N[C@@H](CC(=O)O)C(=O)N[C@@H](Cc1ccccc1)C(N)=O [Asp^1-glucitol CCK-8] (H-[X1][sY]MGWMDF-NH2)
potency at reducing food intake compared to equivalent dose of CCK-8 (Swiss TO mice; 100 nmol/kg i.p., FIG. 3): significantly more potent at reducing food intake at each time point (except at 30 min)
sustained inhibition of cumulative food intake over 3 h compared to saline (Swiss TO mice; 100 nmol/kg i.p., FIG. 3, up to 180 min): sustained over the 3 h post-treatment feeding period
dose-response effects on food intake compared with CCK-8 (Swiss TO mice; 1 to 100 nmol/kg i.p., FIGS. 5-7): more prolonged effects at lower doses
potency compared with native CCK-8 ([2]; FIG. 4): considerable more potent
effect on voluntary food intake ([2]; FIG. 4, up to 300 min): significantly reduce voluntary food intake

metabolised at 1 h, 20 µg/ml ([1]; Swiss TO, pH 7.8, after 1 h incubation with mouse serum, read-out: % converted to CCK-8 fragments (HPLC peak area)): 83.1%
metabolised at 2 h, 20 µg/ml ([1]; Swiss TO, pH 7.8, after 2 h incubation with mouse serum, read-out: % converted to CCK-8 fragments (HPLC peak area)): 100%
remaining at 1 h, 20 µg/ml ([1]; Swiss TO, pH 7.8, intact peptide peak, incubation time 1 h, mouse serum, 37° C., read-out: % Total CCK-like material): 16.9%
remaining at 2 h, 20 µg/ml ([1]; Swiss TO, pH 7.8, intact peptide peak, incubation time 2 h, mouse serum, 37° C., read-out: % Total CCK-like material): 0%
% Total CCK-like material ([1]; intact peptide peak, incubation time 0 h, mouse serum, 37° C.): 100%
% Total CCK-like material ([1]; peak CCK-8 fragment (B), incubation time 1 h): 39.3%
% Total CCK-like material ([1]; peak CCK-8 fragment (B), incubation time 2 h): 58.7%
% Total CCK-like material ([1]; peak CCK-8 fragment (C), incubation time 1 h): 43.8%
% Total CCK-like material ([1]; peak CCK-8 fragment (C), incubation time 2 h): 29.5%
% Total CCK-like material ([1]; peak CCK-8 fragment (D), incubation time 2 h): 11.8%
Molecule: CSCC[C@H](NC(=O)[C@H](Cc1ccc(OS(=O)(=O)O)cc1)NC(=O)[C@@H](N)CC(=O)O)C(=O)NCC(=O)N[C@@H](Cc1c[nH]c2ccccc12)C(=O)N[C@@H](CCSC)C(=O)N[C@@H](CC(=O)O)C(=O)N[C@@H](Cc1ccccc1)C(N)=O [CCK-8, Asp^1Tyr^2(SO3H)-Met^3Gly^4Trp^5Met^6Asp^7Phe^8amide]
half-life [3]: 1 to 2 min

Molecule: glycated tGLP-1: control peptide with a glucitol adduct on the amino-terminus (glucitol-HAEGTFTSDVSSYLEGQAAKEFIAWLVKGR; ends and bridges not checked; UniProt P01275 98-127, looked up)
induction of satiety (control experiment) (Swiss TO mice; control experiments in this test system): insufficient on its own to induce satiety
